Several values for one entry are separate records, joined by “and”; a condition that tells them apart may be missing. Equal entries are not always repeated.
How the values were obtained:
[1] = test system: glucose transport across differentiated Caco-2 cell monolayers; assay: Glucose transport cell model: 5 mM D-glucose 15 minutes, then 25 mM for 45 minutes, cumulative glucose transport; format: cell-based, human; set-up: unit not given here; settings: duplicate
Method: Caco-2 cells were cultured and routinely passaged as described in Example 1.
After the last incubation, all of the retained PBS(+) from each step (i.e. at 15, 30, 45 and 60 minutes) was assayed for glucose levels as described in Example 1, and the total cumulative glucose transport calculated. The localised changes in luminal glucose concentrations described and illustrated in example 1 are mimicked in-vitro through an initial short incubation of differentiated Caco-2 cells with a low level of D-glucose (5 mM for 15 minutes) immediately followed by a sustained incubation with a high level of D-glucose (final concentration of 25 mM for 45 minutes).
In the above table, every test pairing of a homisoflavonoid (HIF) and a flavonoid monoglucoside (FM) has 5 values reported: • 1. No Compound (NC)+NC • 2.
Synergy is achieved when the inhibition caused by the combination of HIF and FM is greater than the sum of the inhibition due to HIF alone added to the inhibition due to FM alone.

SGLT1 [2] = biological target: T1, SGLT1 (Homo sapiens, UniProt P13866); settings: as disclosed in Table 1 of WO 2014/086632; cited from earlier work
T1 sequence (P13866 1-664): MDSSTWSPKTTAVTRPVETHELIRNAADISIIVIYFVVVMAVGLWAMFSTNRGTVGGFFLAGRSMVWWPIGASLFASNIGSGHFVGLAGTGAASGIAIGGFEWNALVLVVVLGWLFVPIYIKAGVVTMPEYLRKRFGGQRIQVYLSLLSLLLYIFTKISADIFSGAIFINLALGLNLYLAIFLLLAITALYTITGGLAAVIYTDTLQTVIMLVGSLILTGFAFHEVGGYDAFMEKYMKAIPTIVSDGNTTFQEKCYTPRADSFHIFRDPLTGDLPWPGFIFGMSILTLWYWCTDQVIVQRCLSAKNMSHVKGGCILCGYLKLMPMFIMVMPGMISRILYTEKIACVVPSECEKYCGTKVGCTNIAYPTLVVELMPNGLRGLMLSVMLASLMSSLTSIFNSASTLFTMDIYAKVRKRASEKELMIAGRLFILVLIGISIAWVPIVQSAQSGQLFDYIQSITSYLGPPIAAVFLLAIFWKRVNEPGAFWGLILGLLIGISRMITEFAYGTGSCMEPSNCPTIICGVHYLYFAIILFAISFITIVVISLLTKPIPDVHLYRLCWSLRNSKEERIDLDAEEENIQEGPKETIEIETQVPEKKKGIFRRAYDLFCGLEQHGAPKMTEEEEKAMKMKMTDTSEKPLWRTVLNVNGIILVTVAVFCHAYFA

SGLT1 and GLUT2 = assay: Assigned class of transporter inhibited, from Caco-2 screening at 5 mM and 25 mM D-glucose; format: cell-based, human; settings: from % inhibition at 5 mM and 25 mM D-glucose; compound 300 μM
SGLT1 [3] = biological target: T1, SGLT1; assay: Glucose transport inhibitor cell screening assay, 5 mM D-glucose for 15 minutes; settings: for inhibition at 300 µM: Caco-2, read-out: % Glucose transport inhibiton 5 mM
Method: (§1) Human epithelial colorectal adenocarcinoma (Caco-2) cells were obtained from the American Type Culture Collection (ATCC) and cultured in Growth Medium consisting of Dulbecco's modified Eagle's medium (containing Glutamax-1, 4.5 g/L D-glucose and 25 mM 4-(2-hydroxyethyl)-1-piperazine ethanesulphonic acid (Hepes) (Invitrogen)), 10% foetal bovine serum (Sigma), 1% non-essential amino acids (Invitrogen) and 1 mM sodium pyruvate (Sigma)). The cells were routinely passaged at approximately 80% confluence using TrypLE™ Express Stable Trypsin-Like Enzyme (Invitrogen) to detach the cells, and seeded at approximately 114 cells per mm^2 in fresh tissue culture flasks. Only cells between the passage numbers 45 and 49 were used for experiments.
(§2) Corning® HTS Transwell® 96 well permeable insert supports (Sigma) were collagen coated with 40 μl of 50 μg/ml rat tail collagen type I (BD Biosciences) in 0.02 M acetic acid for one hour at room temperature under sterile conditions. The inserts were washed twice in phosphate buffered saline (PBS (Invitrogen)) and the Caco-2 cells seeded into the inserts at 1.0×10^6 cell/ml (75 μl per insert) in Growth Medium and 30 ml of Growth Medium added to the feeder plate below. The cells were left to attach to the collagen matrix and form monolayers over 48 hours at 37° C., 5% CO2. Both inserts and feeder plate were washed in PBS and the cells incubated with BD Entero-STIM™ Enterocyte Differentiation Medium containing MITO+™ Serum Extender solution (both BD Biosciences), 75 μl per insert and 30 ml in the feeder plate, for a further 48 hours at 37° C., 5% CO2.
(§3) Differentiated cell monolayers were washed gently in Dulbecco's Phosphate Buffered Saline containing CaCl2 and MgCl2 (PBS(+) (Invitrogen)) and the inserts transferred to a new Corning® HTS Transwell®-96 well receiver plate (Sigma). The cells were incubated with fresh PBS(+) (75 μl per insert and 225 μl per well) for 60 minutes at 37° C., 5% CO2. The PBS(+) was gently aspirated and replaced with 75 μl per insert of either 5 mM D-glucose (Sigma)±test compound or 25 mM D-glucose±test compound in triplicate and 225 μl per well of PBS(+) quickly added to each well. The 5 mM glucose wells and the 25 mM glucose wells were incubated at 37° C., 5% CO2 for 15 minutes and 30 minutes, respectively. […] The cell inserts were transferred to a new receiver plate, the supernatant gently aspirated from the cells and replaced with 100 μl of 100 μM of Lucifer Yellow (Sigma) solution to confirm the integrity of the monolayers. 225 μl of PBS(+) was added to each well and incubated at 37° C., 5% CO2 for 1 hour. The cell inserts were then discarded and the permeability of the membranes to Lucifer Yellow checked by measuring the fluorescence of the samples at 485 nm (excitation) and 530 nm (emission) on a Spectramax Gemini EM fluorescence microplate reader.
(§4) The amount of glucose transported across the cell monolayers was measured using a glucose assay based on Invitrogen's Amplex Red Glucose/Glucose oxidase Assay Kit. Briefly, 50 μl of each test sample was transferred to a black sided/clear bottom 96-well plate (Greiner Bio-One) to which 100 μl of reaction buffer (0.5 μl 10 mM Ampliflu Red, 1 μl 10 U/ml Horse Radish peroxidase, 1 μl 100 U/ml glucose oxidase and 97.5 μl PBS (all Sigma)) was added. After 10 minutes incubation at room temperature, the fluorescence of the samples was measured at 530 nm (excitation) and 590 nm (emission) on a Spectramax Gemini EM fluorescence microplate reader and the glucose concentration extrapolated from a standard curve.
(§5) At higher D-glucose concentrations, the SGLT1 transporter becomes saturated and consequently the majority of glucose transport across the monolayer is driven by the low affinity, high capacity GLUT2 transporter that is targeted to the apical membrane only following an initial SGLT1-dependent transport of glucose.

GLUT2 = biological target: T2, GLUT2 (Homo sapiens, UniProt P11168); assay: Glucose transport inhibitor cell screening assay, 25 mM D-glucose for 30 minutes; settings: for inhibition at 300 µM: Caco-2, read-out: % Glucose transport inhibiton 25 mM; for identified as inhibitors of GLUT2: Caco-2 cell assay
T2 sequence (P11168 1-524): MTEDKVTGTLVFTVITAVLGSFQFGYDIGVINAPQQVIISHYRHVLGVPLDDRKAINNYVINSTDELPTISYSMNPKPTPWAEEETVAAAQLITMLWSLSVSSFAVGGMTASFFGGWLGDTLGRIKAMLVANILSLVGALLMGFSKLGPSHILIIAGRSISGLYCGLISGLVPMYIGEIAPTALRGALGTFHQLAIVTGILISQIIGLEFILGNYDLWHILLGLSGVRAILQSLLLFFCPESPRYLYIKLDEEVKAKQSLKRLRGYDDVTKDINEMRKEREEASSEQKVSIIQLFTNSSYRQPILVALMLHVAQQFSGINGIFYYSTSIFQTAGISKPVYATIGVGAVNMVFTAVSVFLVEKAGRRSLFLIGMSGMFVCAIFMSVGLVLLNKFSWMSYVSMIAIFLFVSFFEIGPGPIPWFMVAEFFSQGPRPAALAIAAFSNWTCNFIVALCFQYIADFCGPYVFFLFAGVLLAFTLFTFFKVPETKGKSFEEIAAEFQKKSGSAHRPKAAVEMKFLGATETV
Method: as §1, §2, §3, §4, §5

[4] = flavonoid monoglucoside 300 uM alone, added at 5 mM glucose step only (NC at 25 mM)
[5] = flavonoid monoglucoside 300 uM alone, added at 25 mM glucose step only (NC at 5 mM)
[6] = homoisoflavonoid 2.5 uM alone, added at 25 mM glucose step (NC at 5 mM)
[7] = homoisoflavonoid 10 uM alone, added at 25 mM glucose step (NC at 5 mM)

## O=c1cc(-c2ccc(O)cc2)oc2c([C@@H]3O[C@H](CO)[C@@H](O)[C@H](O)[C@H]3O)c(O)cc(O)c12 [Apigenin-8-C-glucoside]
[1]; [4]
  Cumulative (AVE) glucose transport: 291.89
[1]; [5]
  Cumulative (AVE) glucose transport: 287.58
SGLT1 [2]
  SGLT1 inhibitory activity: SGLT1 inhibitors

## OC[C@H]1O[C@@H](Oc2cc3c(O)cc(O)cc3[o+]c2-c2cc(O)c(O)c(O)c2)[C@H](O)[C@@H](O)[C@@H]1O.[Cl-] [Delphinidin-3-O-glucoside chloride, delphinidin-3-O-glucoside chloride]
SGLT1 and GLUT2
  Class (assigned class of transporter inhibited): SGLT1
[1]; [4]
  Cumulative (AVE) glucose transport: 220.62
[1]; [5]
  Cumulative (AVE) glucose transport: 227.60
SGLT1 [3]; Caco-2 cell assay
  identified as inhibitors of SGLT1: inhibitors of SGLT1
SGLT1 [3]; compound 300 μM in DMSO, 5 mM D-glucose, 15 minutes, Caco-2 monolayer, triplicate
  % Glucose transport inhibiton 5 mM: 41.00 ± 3.60%
GLUT2; compound 300 μM in DMSO, 25 mM D-glucose, 30 minutes, Caco-2 monolayer, triplicate
  % Glucose transport inhibiton 25 mM: 12.82 ± 1.19%

## Cc1c(O)cc2c(c1O)C(=O)C(Cc1ccc(O)cc1)CO2 (stereo not drawn) [EA1, 5,7-dihydroxy-3-(4′-hydroxybenzyl)-6-methylchroman-4-one]
SGLT1 and GLUT2
  Class (assigned class of transporter inhibited): GLUT2 (GLUT2 inhibitors having ≥20% inhibition at both 5 mM and 25 mM D-glucose levels)
[1]; [6]
  Cumulative (AVE) glucose transport: 339.2
[1]; homoisoflavonoid 5 uM alone, added at 25 mM glucose step (NC at 5 mM)
  Cumulative (AVE) glucose transport: 284.6
[1]; [7]
  Cumulative (AVE) glucose transport: 301.50 and 232.03
SGLT1 [3]
  inhibition at 300 µM: 90.7 ± 1.4%
GLUT2
  inhibition at 300 µM: 66.6 ± 5.21%
  identified as inhibitors of GLUT2: inhibitors of GLUT2

## COc1c(O)c(C)c(O)c2c1OCC(Cc1ccc(O)cc1)C2=O (stereo not drawn) [EA2, 5,7-dihydroxy-3-(4′-hydroxybenzyl)-6-methyl-8-methoxychroman-4-one]
SGLT1 and GLUT2
  Class (assigned class of transporter inhibited): GLUT2 (GLUT2 inhibitors having ≥20% inhibition at both 5 mM and 25 mM D-glucose levels)
[1]; [7]
  Cumulative (AVE) glucose transport: 283.98
SGLT1 [3]
  inhibition at 300 µM: 89.9 ± 0.06%
GLUT2
  inhibition at 300 µM: 63 ± 2.94%
  identified as inhibitors of GLUT2: inhibitors of GLUT2

## Cc1c(O)c(C)c2c(c1O)C(=O)C(Cc1ccc(O)cc1)CO2 (stereo not drawn) [EA3, 5,7-dihydroxy-3-(4′-hydroxybenzyl)-6,8-dimethylchroman-4-one]
SGLT1 and GLUT2
  Class (assigned class of transporter inhibited): GLUT2 (GLUT2 inhibitors having ≥20% inhibition at both 5 mM and 25 mM D-glucose levels)
[1]; [6]
  Cumulative (AVE) glucose transport: 291.33
SGLT1 [3]
  inhibition at 300 µM: 91.15 ± 0.46%
GLUT2
  inhibition at 300 µM: 67.4 ± 5.87%
  identified as inhibitors of GLUT2: inhibitors of GLUT2

## O=c1c(O[C@@H]2O[C@H](CO)[C@@H](O)[C@H](O)[C@H]2O)c(-c2ccc(O)cc2)oc2cc(O)cc(O)c12 [Kaempferol-3-glucoside]
[1]; flavonoid monoglucoside 150 uM alone, added at 5 mM glucose step only (NC at 25 mM)
  Cumulative (AVE) glucose transport: 297.72
[1]; flavonoid monoglucoside 150 uM alone, added at 25 mM glucose step only (NC at 5 mM)
  Cumulative (AVE) glucose transport: 290.49
SGLT1 [2]
  SGLT1 inhibitory activity: SGLT1 inhibitors

## O=c1cc(-c2ccc(O)c(O)c2)oc2cc(O[C@@H]3O[C@H](CO)[C@@H](O)[C@H](O)[C@H]3O)cc(O)c12 [Luteolin-7-glucoside]
[1]; flavonoid monoglucoside 300 uM alone, added at 5 mM glucose step only (NC at 25 mM), listed as L7G
  Cumulative (AVE) glucose transport: 220.63 and 301.4
[1]; flavonoid monoglucoside 300 uM alone, added at 25 mM glucose step only (NC at 5 mM), listed as L7G
  Cumulative (AVE) glucose transport: 256.73 and 281.9
SGLT1 [2]
  SGLT1 inhibitory activity: SGLT1 inhibitors

## O=C1CC(c2ccc(O)cc2)Oc2cc(O[C@@H]3O[C@H](CO)[C@@H](O)[C@H](O)[C@H]3O)cc(O)c21 (stereo partly drawn) [Naringenin-7-O-glucoside]
[1]; [4]
  Cumulative (AVE) glucose transport: 215.32
[1]; [5]
  Cumulative (AVE) glucose transport: 236.65
SGLT1 [2]
  SGLT1 inhibitory activity: SGLT1 inhibitors

## O=C(CCc1ccc(O)cc1)c1c(O)cc(O)cc1O[C@@H]1O[C@H](CO)[C@@H](O)[C@H](O)[C@H]1O [Phloridzin, reference compound]
GLUT2
  inhibition at 300 µM: 14.3 ± 0.84%

## O=c1cc(-c2ccc(O)cc2)oc2cc(OC3O[C@H](CO)[C@@H](O)[C@H](O)[C@H]3O)cc(O)c12 (stereo partly drawn) [apigenin-7-glucoside]
SGLT1 [2]
  SGLT1 inhibitory activity: SGLT1 inhibitors

## OC[C@H]1O[C@@H](Oc2ccc(O)cc2)[C@H](O)[C@@H](O)[C@@H]1O [arbutin]
SGLT1 [2]
  SGLT1 inhibitory activity: lack of SGLT1 inhibitory activity

## OC[C@H]1O[C@@H](Oc2cc3c(O)cc(O)cc3[o+]c2-c2ccc(O)c(O)c2)[C@H](O)[C@@H](O)[C@@H]1O [cyanidin-3-glucoside]
SGLT1 [2]
  SGLT1 inhibitory activity: SGLT1 inhibitors

## C[C@@H]1O[C@@H](OC[C@H]2O[C@@H](Oc3cc4c(O)cc(O)cc4[o+]c3-c3ccc(O)c(O)c3)[C@H](O)[C@@H](O)[C@@H]2O)[C@H](O)[C@H](O)[C@H]1O [cyanidin-3-rutinoside]
SGLT1 [2]
  SGLT1 inhibitory activity: absence of SGLT1 inhibitory activity

## O=c1c(-c2ccc(O)cc2)coc2cc(O[C@@H]3O[C@H](CO)[C@@H](O)[C@H](O)[C@H]3O)ccc12 [daidzein-7-glucoside]
SGLT1 [2]
  SGLT1 inhibitory activity: SGLT1 inhibitors

## O=c1c(-c2ccc(O)cc2)coc2c([C@@H]3O[C@H](CO)[C@@H](O)[C@H](O)[C@H]3O)c(O)ccc12 [daidzein-8-C-glucoside]
SGLT1 [2]
  SGLT1 inhibitory activity: SGLT1 inhibitors

## OC[C@H]1O[C@@H](Oc2cc3c(O)cc(O)cc3[o+]c2-c2cc(O)c(O)c(O)c2)[C@H](O)[C@@H](O)[C@@H]1O [delphinidin-3-glucoside]
SGLT1 [2]
  SGLT1 inhibitory activity: SGLT1 inhibitors

## O=C1CC(c2ccc(O)c(O)c2)Oc2cc(O[C@@H]3O[C@H](CO)[C@@H](O)[C@H](O)[C@H]3O)cc(O)c21 (stereo partly drawn) [eriodictiol-7-glucoside]
SGLT1 [2]
  SGLT1 inhibitory activity: SGLT1 inhibitors

## O=c1c(O)c(-c2ccc(O)cc2)oc2cc(O[C@@H]3O[C@H](CO)[C@@H](O)[C@H](O)[C@H]3O)cc(O)c12 [kaempferol-7-glucoside]
SGLT1 [2]
  SGLT1 inhibitory activity: SGLT1 inhibitors

## COc1cc(-c2[o+]c3cc(O)cc(O)c3cc2O[C@@H]2O[C@H](CO)[C@H](O)[C@H](O)[C@H]2O)cc(OC)c1O [malvidin-3-O-galactoside]
SGLT1 [2]
  SGLT1 inhibitory activity: absence of SGLT1 inhibitory activity

## COc1cc(-c2[o+]c3cc(O)cc(O)c3cc2O[C@@H]2O[C@H](CO)[C@@H](O)[C@H](O)[C@H]2O)cc(OC)c1O [malvidin-3-O-glucoside]
SGLT1 [2]
  SGLT1 inhibitory activity: SGLT1 inhibitors

## OC[C@H]1O[C@@H](Oc2cc3c(O)cc(O)cc3[o+]c2-c2ccc(O)cc2)[C@H](O)[C@@H](O)[C@@H]1O [pelargonidin-3-glucoside]
SGLT1 [2]
  SGLT1 inhibitory activity: SGLT1 inhibitors

## O=c1c(O[C@@H]2O[C@H](CO)[C@@H](O)[C@H](O)[C@H]2O)c(-c2ccc(O[C@@H]3O[C@H](CO)[C@@H](O)[C@H](O)[C@H]3O)c(O)c2)oc2cc(O)cc(O)c12 [quercetin-3,4′-diglucoside]
SGLT1 [2]
  SGLT1 inhibitory activity: destroys this inhibitory action

## O=c1c(O[C@@H]2O[C@H](CO)[C@@H](O)[C@H](O)[C@H]2O)c(-c2ccc(O)c(O)c2)oc2cc(O)cc(O)c12 [quercetin-3-glucoside]
SGLT1 [2]
  SGLT1 inhibitory activity: SGLT1 inhibitors

## O=c1c(O)c(-c2ccc(O[C@@H]3O[C@H](CO)[C@@H](O)[C@H](O)[C@H]3O)c(O)c2)oc2cc(O)cc(O)c12 [quercetin-4-glucoside]
SGLT1 [2]
  SGLT1 inhibitory activity: SGLT1 inhibitors

Source: US10806744B2, “Edible composition” (Conopco, Inc., priority 2015, dated 2020)
